Assay results from paper PMC10974294, “Addressing the ADME Challenges of Compound Loss in a PDMS-Based Gut-on-Chip Microphysiological System” (Pharmaceutics, 2024).
Structures can show the parent of a compound that is named as a salt.

Assays:
Caco-2/HUVEC gut-on-chip [1] = experiment: Metabolite identification in Caco-2/HUVEC gut-on-chip; conditions: for fraction of the total amount of all metabolites (peak areas): testosterone 10 µM perfused 2 h at 200 µL/h, top and bottom outlets
Protocol: The analysis was performed on an LC-MS system containing a Vanquish UPLC (ThermoFisher Scientific, San Jose, CA, USA) coupled to an Orbitrap FusionTribrid high-resolution mass spectrometer (ThermoFisher Scientific). The structural elucidation was based on exact mass measurements in combination with the interpretation of fragment spectra.

[2] = Compound loss (PDMS ad- and absorption) in cell-free organ-chips; assay type: in vitro ADME; conditions: for Compound Loss Bottom Channel (%) / Compound Loss Top Channel (%): 10 µM per drug in cocktail, outlet vs inlet after one hour at 200 µL/h, mean of two experiments
Text: S-1® Organ-Chips from Emulate Inc. (Boston, MA, USA) comprise 2 parallel channels (top and bottom) for cell culture, which are superimposed and separated via a porous membrane, all made of polydimethylsiloxane (PDMS). The 50 µm thick membrane contains pores of a diameter of 7 µm, which are spaced 40 µm apart from each other. In addition, 2 more channels, in which a vacuum can be applied to laterally stretch the cell culture channels, flank the cell culture channels horizontally. The top channel has a size of 1000 × 1000 µm (width × height), a culture area of 28 mm^2, and a volume of 28 µL. The bottom channel has a size of 1000 × 200 µm (width × height), a culture area of 24.5 mm^2, and a volume of 5.6 µL. Both channels share an area of 17.1 mm^2 of the porous membrane as a coculture area. To conduct experiments, each organ-chip is inserted into a cell culture container called Pod®, which connects 4 physically separated fluid reservoirs with the in- and outlets of the top and bottom channels. […] The Zoë module controls, as well as regulates, the vacuum and pressured gas flows generated by the Orb hub module, which also powers the Zoë module.
Compound loss experiments in cell-free organ-chips were performed with used chips after removal of the cells and washing-out of previously perfused compounds (Section 4). […] The compound concentrations in the outlets were measured via liquid chromatography-tandem mass spectrometry (LC-MS/MS, Section 2.8) after a period of one hour, with a flow rate of 200 µL/h (manufacturer’s instruction), and relatively compared to the inlet concentrations, and the difference was reported as the percent drug absorbed. The experiments were performed in duplicate.

P-gp [3] = experiment: Bidirectional permeability assay in Caco-2/HUVEC gut-on-chip; assay type: cell-based, human; conditions: human, pH 7.4; Caco-2/HUVEC gut-on-chip, day 10; 10 µM; no inhibitor; read-out: efflux ratio, control
Protocol: (§1) The Caco-2/HUVEC gut-on-chip was prepared according to the Caco-2/HUVEC gut-on-chip protocol provided by Emulate Inc. Briefly, on day −1 of the protocol, the PDMS membrane was activated using Emulate reagent (ER) 1 dissolved in ER 2 solution at a concentration of 0.5 mg/mL. The top channels were filled with 50 µL and the bottom channels with 20 µL of ER 1 solution and then treated under UV light for 10 min. Next, activated ER 1 solution was aspirated from both channels and exchanged with fresh ER 1 solution after which the chips were again exposed to UV light for 5 min. The two channels were then subsequently washed with ER 2 solution followed by ice-cold PBS. After the PBS was fully aspirated from both channels, the chips were coated with 100 µg/mL Matrigel and 30 µg/mL collagen type I in PBS overnight at 37 °C. On day 0 of the protocol, both channels were washed with HUVEC culture medium before 0.14 × 10^6 viable HUVECs in 20 µL HUVEC culture medium were seeded in the bottom channel. The chips were inverted and HUVECs were allowed to adhere for at least 2 h to the porous PDMS membrane. Afterwards, the chips were inverted again, and the top channel was filled with enough Caco-2 culture medium to also cover the in- and outlets (~100 µL). Caco-2 cells were seeded in the top channel (0.15 × 10^6 viable cells in 50 µL Caco-2 culture medium). […]

P-gp [4] = experiment: in vitro; conditions: human, Caco-2
Protocol: Either the top (A–B direction) or bottom (B–A direction) channel served as the donor compartments and the respective other channels (A–B: bottom; B–A: top) as receiver compartments. […] Following an Emulate protocol, dosing of a cocktail of both compounds at 10 µM in transporter buffer was initiated via a drug introduction step (flow rate of 600 µL/h for 10 min), after which the outlets were aspirated. The outlet concentrations were determined after one hour (flow rate: 200 µL/h). […] The samples from the receiver outlets were used for the bioanalysis without dilution. The samples from the donor inlets, as well as outlets, were diluted 1:50 (v/v) in transport buffer. All samples were spiked with the internal standard and used for the LC-MS/MS analysis, as described in Section 2.8.

Caco-2/HUVEC gut-on-chip [5] = experiment: Bidirectional permeability assay in Caco-2/HUVEC gut-on-chip; assay type: cell-based, human; conditions: coperfusion with elacridar 10 µM in Caco-2/HUVEC gut-on-chip
Protocol: as §1

P-gp [6] = target: T1, P-gp (Homo sapiens, UniProt P08183); experiment: Inhibition of P-gp mediated Quinidine efflux in MDCK-MDR1 cells; assay type: cell-based; conditions: probe quinidine, Supplementary Table S2
T1 construct: expressed in transfected cells; host or cells: MDCK-MDR1 cells
T1 sequence (P08183 whole entry): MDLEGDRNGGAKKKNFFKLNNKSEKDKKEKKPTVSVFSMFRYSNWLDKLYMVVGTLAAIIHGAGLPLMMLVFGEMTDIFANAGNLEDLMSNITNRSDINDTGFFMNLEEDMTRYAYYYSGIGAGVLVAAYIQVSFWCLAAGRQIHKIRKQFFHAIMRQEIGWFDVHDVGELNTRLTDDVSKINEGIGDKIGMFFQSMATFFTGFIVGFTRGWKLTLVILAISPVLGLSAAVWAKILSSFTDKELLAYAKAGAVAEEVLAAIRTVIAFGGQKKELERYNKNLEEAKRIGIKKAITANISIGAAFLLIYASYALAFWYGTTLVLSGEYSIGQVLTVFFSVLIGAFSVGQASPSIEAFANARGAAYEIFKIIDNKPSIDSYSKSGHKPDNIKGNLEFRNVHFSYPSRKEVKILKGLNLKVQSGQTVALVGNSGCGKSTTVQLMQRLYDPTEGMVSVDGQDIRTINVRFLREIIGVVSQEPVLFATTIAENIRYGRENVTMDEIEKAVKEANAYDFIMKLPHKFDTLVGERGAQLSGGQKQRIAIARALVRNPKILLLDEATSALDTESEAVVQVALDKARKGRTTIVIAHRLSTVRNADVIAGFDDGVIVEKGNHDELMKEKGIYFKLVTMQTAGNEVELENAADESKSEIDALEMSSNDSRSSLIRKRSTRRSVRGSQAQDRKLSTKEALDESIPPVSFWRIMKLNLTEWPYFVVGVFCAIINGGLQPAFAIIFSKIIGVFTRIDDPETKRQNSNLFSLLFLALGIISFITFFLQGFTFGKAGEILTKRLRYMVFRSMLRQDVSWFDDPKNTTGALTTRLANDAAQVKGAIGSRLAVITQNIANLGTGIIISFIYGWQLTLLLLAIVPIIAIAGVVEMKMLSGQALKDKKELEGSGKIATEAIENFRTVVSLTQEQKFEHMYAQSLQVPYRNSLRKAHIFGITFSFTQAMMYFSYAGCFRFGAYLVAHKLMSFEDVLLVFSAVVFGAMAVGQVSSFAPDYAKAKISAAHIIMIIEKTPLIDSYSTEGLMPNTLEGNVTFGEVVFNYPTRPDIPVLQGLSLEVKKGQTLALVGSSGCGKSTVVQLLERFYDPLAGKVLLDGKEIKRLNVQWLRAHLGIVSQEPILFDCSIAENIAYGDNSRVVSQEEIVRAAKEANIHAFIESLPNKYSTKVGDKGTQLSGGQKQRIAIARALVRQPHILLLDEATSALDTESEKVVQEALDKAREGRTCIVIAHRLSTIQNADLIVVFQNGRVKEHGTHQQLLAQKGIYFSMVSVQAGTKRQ

Caco-2/HUVEC gut-on-chip [7] = experiment: Time-resolved testosterone loss, clearance, permeability and mass balance in Caco-2/HUVEC gut-on-chip
Protocol: The Caco-2/HUVEC gut-on-chip was prepared according to the Caco-2/HUVEC gut-on-chip protocol provided by Emulate Inc. Briefly, on day −1 of the protocol, the PDMS membrane was activated using Emulate reagent (ER) 1 dissolved in ER 2 solution at a concentration of 0.5 mg/mL. The top channels were filled with 50 µL and the bottom channels with 20 µL of ER 1 solution and then treated under UV light for 10 min. Next, activated ER 1 solution was aspirated from both channels and exchanged with fresh ER 1 solution after which the chips were again exposed to UV light for 5 min. The two channels were then subsequently washed with ER 2 solution followed by ice-cold PBS. After the PBS was fully aspirated from both channels, the chips were coated with 100 µg/mL Matrigel and 30 µg/mL collagen type I in PBS overnight at 37 °C. On day 0 of the protocol, both channels were washed with HUVEC culture medium before 0.14 × 10^6 viable HUVECs in 20 µL HUVEC culture medium were seeded in the bottom channel. The chips were inverted and HUVECs were allowed to adhere for at least 2 h to the porous PDMS membrane. Afterwards, the chips were inverted again, and the top channel was filled with enough Caco-2 culture medium to also cover the in- and outlets (~100 µL). Caco-2 cells were seeded in the top channel (0.15 × 10^6 viable cells in 50 µL Caco-2 culture medium). Caco-2 cells were also allowed to adhere for 2 h and then the channels were filled with the respective media and incubated overnight at 37 °C. On day 1, the inlet reservoirs of the Pods were filled with 3 mL of the respective degassed media, and the chips were connected to the Pods. The Pods were then placed into the Zoë module, and a flow at a rate of 30 µL/h (manufacturer’s instruction) was applied for both channels. From day 3 onwards, the HUVECs were cultured in HUVEC culture medium but with 0.5% FCS. On day 3, 10% lateral, peristalsis-like stretch was activated with a frequency of 0.15 Hz (manufacturer’s instruction). On day 8, the FCS concentration in the Caco-2 culture medium was reduced from 20% to 10%. Medium reservoirs were replenished with fresh medium 2–3 times per week.
The cell-free organ-chips were previously utilized in experiments with cells and were prepared in the same way as described for the compound loss studies above. The Caco-2/HUVEC gut-on-chip was cultivated under the conditions described for standard cell culture until day 13. […] An introduction step with a high flow rate of 600 µL/h is recommended by the manufacturer to “saturate” the ad- and absorptions of compounds by the PDMS material. […] The samples from the bottom outlet were used directly for bioanalytical quantification. […]
A quantitative bioanalysis was performed with a fit-for-purpose assay using protein precipitation followed by LC-MS/MS. […]

[8] = Time-resolved testosterone loss and chip-specific clearance in cell-free organ-chips
Protocol: The cell-free organ-chips were previously utilized in experiments with cells and were prepared in the same way as described for the compound loss studies above. The Caco-2/HUVEC gut-on-chip was cultivated under the conditions described for standard cell culture until day 13. […] An introduction step with a high flow rate of 600 µL/h is recommended by the manufacturer to “saturate” the ad- and absorptions of compounds by the PDMS material. The necessity of this step will be discussed in Section 3 and Section 4. After the introduction step, both outlets were aspirated. […] During the sampling, the flow was stopped for a few seconds, a Pod®, which included a chip, was removed from the Zoë, a single chip removed from the Pod®, and samples were taken. The samples from the bottom outlet were used directly for bioanalytical quantification. The samples from the top inlet and top outlet were sampled from the respective reservoirs and diluted 1:50 (v/v) in transport buffer. The chips were subsequently dismantled from the Pods, and samples from the top channel and bottom channel were taken with a pipette via the outlets (Figure 1A). The samples from the top channel were diluted 1:50 (v/v) and the samples from the bottom channel 1:2 (v/v) in transport buffer.
The outlet reservoirs contained, therefore, perfusates from time zero to time point t. […] A period of 60 min was chosen because it was recommended by the manufacturer for diverse applications. […] For time points before 60 min, Ct,last was identical to Ct,cum by definition. Vt is the total volume of perfusate collected from time zero to t. Vt was calculated with the following equation:(4) Vt=t÷60×Q
The time profiles of Ct,last in the cell-free organ-chips and in the Caco-2/HUVEC gut-on-chip are shown in Figure 6A,B. Using Ct,last, the compound loss can be calculated in each putative collecting period of 60 min with the following equation:(5) Losst=Cinlet−Ct, last, top−Ct, last, bottom×Q

[9] = cell-free organ-chips, testosterone 10 µM, 200 µL/h

Compound	Compound Loss Bottom Channel (%) ([2]; cell-free organ-chips)	Compound Loss Top Channel (%) ([2]; cell-free organ-chips)	other results
C[C@]12CCC(=O)C=C1CC[C@@H]1[C@@H]2CC[C@]2(C)C(=O)CC[C@@H]12 [4-androstenedione]			fraction of the total amount of all metabolites (peak areas) (Caco-2/HUVEC gut-on-chip [1]): 96.5%; compound loss in cell-free organ-chips (in words, relative to testosterone) ([2]; Supplementary Table S1): much higher compound loss
Cc1nnc2n1-c1sc(CCC(=O)N3CCOCC3)cc1C(c1ccccc1Cl)=NC2 [Apafant]	8.0%	15.0%	efflux ratio at 1 h, 10 µM (P-gp [3]): 22.2; efflux ratio (P-gp [4]): 12.4 ± 7.8
CC(C)c1c(C(=O)Nc2ccccc2)c(-c2ccccc2)c(-c2ccc(F)cc2)n1CC[C@@H](O)C[C@@H](O)CC(=O)O [Atorvastatin]	7.4%	18.9%	
Cc1c(-c2ccc(O)cc2)n(Cc2ccc(OCCN3CCCCCC3)cc2)c2ccc(O)cc12 [Bazedoxifene]	26.0%	56.4%	
O=C1CC2(CCCC2)CC(=O)N1CCCCN1CCN(c2ncccn2)CC1 [Busiprone]	30.5%	33.1%	
COc1cc2c(cc1OC)CN(CCc1ccc(NC(=O)c3cccc4c(=O)c5cccc(OC)c5[nH]c34)cc1)CC2 [Elacridar]			inhibition of the efflux of Apafant (Caco-2/HUVEC gut-on-chip [5]): completely; IC90 (P-gp [6]): ~1000 nM
O=C1[C@H](CC[C@H](O)c2ccc(F)cc2)[C@@H](c2ccc(O)cc2)N1c1ccc(F)cc1 [Ezetemibe]	1.3%	0.0%	
CCOC(=O)C1=C(C)NC(C)=C(C(=O)OC)C1c1cccc(Cl)c1Cl (centres unmarked) [Felodipine]	84.0%	79.0%	
Cc1ncc2n1-c1ccc(Cl)cc1C(c1ccccc1F)=NC2 [Midazolam]	67.8%	72.1%	
CCN(CC)CC#CCOC(=O)C(O)(c1ccccc1)C1CCCCC1 (centres unmarked) [Oxybutynin]	100.0%	99.9%	PDMS compound loss during the one-hour period (in words) ([2]; cell-free organ-chips, 10 µM, one hour, 200 µL/h, top and bottom channels): complete
C=C[C@H]1C[N@@]2CC[C@H]1C[C@@H]2[C@@H](O)c1ccnc2ccc(OC)cc12 [Quinidine]	13.4%	0.3%	
CC(C)c1nc(N(C)S(C)(=O)=O)nc(-c2ccc(F)cc2)c1/C=C/[C@@H](O)C[C@@H](O)CC(=O)O [Rosuvastatin]	7.9%	12.6%	
CC(C)(C)NC(=O)[C@@H]1C[C@@H]2CCCC[C@@H]2CN1C[C@@H](O)[C@H](Cc1ccccc1)NC(=O)[C@H](CC(N)=O)NC(=O)c1ccc2ccccc2n1 [Saquinavir]	21.9%	48.0%	
C[C@]12CC[C@H]3[C@@H](CCC4=CC(=O)CC[C@@]43C)[C@@H]1CC[C@@H]2O [Testosterone]	35.1%	37.6%	CYP3A4-related hydroxylation of testosterone (Caco-2/HUVEC gut-on-chip [1]; Caco-2/HUVEC gut-on-chip): did not detect; maximum testosterone concentration (top channel and outlet) (Caco-2/HUVEC gut-on-chip [7]; Caco-2/HUVEC gut-on-chip, 10 µM via top inlet, 200 µL/h, 135 min): < 2000 nM; time to steady state (Caco-2/HUVEC gut-on-chip [7]; Caco-2/HUVEC gut-on-chip, first sample time point): ≤ 15 min; clearance (total) in Caco-2/HUVEC gut-on-chip (Caco-2/HUVEC gut-on-chip [7]; collecting period 75-135 min, flow 200 µL/h): 172.1 µL/h; metabolic clearance in the gut-on-chip (Caco-2/HUVEC gut-on-chip [7]; total clearance minus chip-specific clearance, flow 200 µL/h): 160.4 µL/h; final testosterone concentration in the bottom channel and outlet ([8]; cell-free organ-chips, 10 µM via top inlet, 200 µL/h, 135 min): < 1000 nM; testosterone concentration in the top channel and outlet ([8]; cell-free organ-chips, 10 µM via top inlet, 200 µL/h, reached over 135 min): ~ 7000 nM; clearance (chip-specific / chip-intrinsic clearance) ([8]; cell-free organ-chips, collecting period 75-135 min, flow 200 µL/h): 11.7 µL/h; compound loss during the first 60 min of the collecting period [8, 9]: 719.1 pmol/h; compound loss in the last 60 min of the collecting period [8, 9]: 116.5 pmol/h; compound loss corresponding to chip-intrinsic clearance ([8]; corresponds to 11.7 µL/h at flow 200 µL/h): 6%
O[C@@H](COc1cccc2ncccc12)CN1CCN([C@@H]2c3ccccc3[C@@H]3[C@H](c4ccccc42)C3(F)F)CC1 [Zosuquidar]	99.0%	97.0%	compound loss after 1 h of perfusion ([2]; cell-free organ-chips, 10 µM): ~100%
C[C@]12CC[C@H]3[C@@H](CCC4=CC(=O)CC[C@@]43C)[C@@H]1CC[C@@H]2O[C@@H]1O[C@H](C(=O)O)[C@@H](O)[C@H](O)[C@H]1O [testosterone glucuronide]			fraction of the total amount of all metabolites (peak areas) (Caco-2/HUVEC gut-on-chip [1]): 3.2%
C[C@]12CC[C@H]3[C@@H](CCC4=CC(=O)CC[C@@]43C)[C@@H]1CC[C@@H]2OS(=O)(=O)O [testosterone sulfate]			fraction of the total amount of all metabolites (peak areas) (Caco-2/HUVEC gut-on-chip [1]): 0.3%
